Here are results for twelve compounds from patent US12180192B2, “Modulators of THR-β and methods of use thereof” (ALIGOS THERAPEUTICS, INC., priority 2019, dated 2024).

SMILES strings stand for the structures. A value given as a limit tells only on which side of the number the result lay.

The target in experiment [1] is T1, human thyroid receptor beta ligand-binding domain (LBD) (Homo sapiens, UniProt P10828).
T1 construct: purchased Invitrogen
T1 sequence (P10828 217-461 limits assumed): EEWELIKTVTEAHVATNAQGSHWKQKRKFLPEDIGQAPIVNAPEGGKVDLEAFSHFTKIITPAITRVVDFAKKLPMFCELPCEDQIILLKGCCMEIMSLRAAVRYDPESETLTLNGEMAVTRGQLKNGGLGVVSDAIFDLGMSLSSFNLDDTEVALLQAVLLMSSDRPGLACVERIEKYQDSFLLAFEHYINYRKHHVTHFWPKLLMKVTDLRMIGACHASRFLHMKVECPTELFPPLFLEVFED
The experiment in a line: TR-FRET thyroid receptor beta coactivator assay (THR biochemical assay, Assay 1). Particulars: for EC50: THR-beta, TR-FRET coactivator assay, read-out: Activity category Assay 1 (EC50, THR-beta agonist); for Emax: Table 5, Assay 1, THRβ, read-out: Activity category Assay 1 THRβ (Emax). Summed up: (§1)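 Agonist-driven coactivator recruitment measured by TR-FRET: terbium anti-GST antibody (2 nM) bound to GST-LBD of TRβ or TRα (1 nM final, stated for β), with fluorescein SRC2-2 peptide at 200 nM. Compounds at 1% DMSO. Read after 1 h, room temperature, protected from light.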
(In general: TR-FRET usually uses a lanthanide donor and a delayed reading to cut background.)

Experiment [2] deals with T2, human thyroid receptor alpha ligand-binding domain (LBD) (Homo sapiens, UniProt P10827).
T2 construct: purchased Invitrogen
The experiment in a line: TR-FRET thyroid receptor alpha coactivator assay (THR biochemical assay, Assay 1). Particulars: for EC50: Table 4, THR-alpha, read-out: Activity category Assay 1 (EC50, THR-alpha agonist activity); for Emax: Table 5, THRα, read-out: Activity category Assay 1 THRα (Emax). The essentials:
as §1

For another experiment, the target named is T3, THR beta (Homo sapiens, UniProt P10828).
T3 construct: expressed in transfected cells; host or cells: HEK293T (ATCC CRL-3216)
T3 sequence (P10828 1-461): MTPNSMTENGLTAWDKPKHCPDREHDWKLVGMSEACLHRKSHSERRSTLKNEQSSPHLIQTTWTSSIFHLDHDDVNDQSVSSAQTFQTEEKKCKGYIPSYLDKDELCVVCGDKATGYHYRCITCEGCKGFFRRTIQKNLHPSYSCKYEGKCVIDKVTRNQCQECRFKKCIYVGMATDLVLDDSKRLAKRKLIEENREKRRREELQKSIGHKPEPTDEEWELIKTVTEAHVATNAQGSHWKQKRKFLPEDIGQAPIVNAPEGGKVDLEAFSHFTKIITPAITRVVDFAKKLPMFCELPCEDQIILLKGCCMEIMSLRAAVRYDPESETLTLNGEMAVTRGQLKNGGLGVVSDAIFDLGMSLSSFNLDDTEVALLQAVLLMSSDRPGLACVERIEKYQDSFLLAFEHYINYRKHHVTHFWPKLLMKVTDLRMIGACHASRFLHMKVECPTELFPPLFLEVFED
T3 sequence (P19793 1-462 partner): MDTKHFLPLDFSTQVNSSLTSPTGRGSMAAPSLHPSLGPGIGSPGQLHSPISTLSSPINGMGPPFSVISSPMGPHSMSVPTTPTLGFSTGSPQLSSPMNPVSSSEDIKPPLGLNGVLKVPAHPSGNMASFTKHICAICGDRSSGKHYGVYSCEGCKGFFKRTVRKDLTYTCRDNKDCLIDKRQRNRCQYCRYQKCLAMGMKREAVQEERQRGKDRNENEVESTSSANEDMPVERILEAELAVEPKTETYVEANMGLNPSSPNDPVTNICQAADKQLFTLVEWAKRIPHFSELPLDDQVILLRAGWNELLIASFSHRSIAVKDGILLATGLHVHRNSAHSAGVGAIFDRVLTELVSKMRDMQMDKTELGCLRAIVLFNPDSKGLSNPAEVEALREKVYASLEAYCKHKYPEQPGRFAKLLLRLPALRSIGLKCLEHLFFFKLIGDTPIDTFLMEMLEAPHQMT
The experiment in a line: HEK293T THR beta/RXR luciferase reporter assay (Assay 2). In kind it is cell-based. The note with it: for Emax: HEK-293T, Table 5, Assay 2, THRβ, read-out: Activity category Assay 2 THRβ (Emax); for EC50: THR-beta, HEK293T reporter assay, read-out: Activity category Assay 2 (EC50, THR-beta agonist). The essentials: (§2)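 Compounds tested as ten-point five-fold dilution series for 18-24 h on transiently transfected HEK293T cells carrying TRE-driven luciferase plus RXR and either THR alpha or beta expression plasmids. Read-out by One-Glo luminescence, expressed as percent agonism relative to negative and positive controls.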

A further experiment concerns the target T4, THR alpha (Homo sapiens, UniProt P10827).
T4 construct: expressed in transfected cells; host or cells: HEK293T (ATCC CRL-3216)
T4 sequence (P10827 1-410 isoform P10827-2): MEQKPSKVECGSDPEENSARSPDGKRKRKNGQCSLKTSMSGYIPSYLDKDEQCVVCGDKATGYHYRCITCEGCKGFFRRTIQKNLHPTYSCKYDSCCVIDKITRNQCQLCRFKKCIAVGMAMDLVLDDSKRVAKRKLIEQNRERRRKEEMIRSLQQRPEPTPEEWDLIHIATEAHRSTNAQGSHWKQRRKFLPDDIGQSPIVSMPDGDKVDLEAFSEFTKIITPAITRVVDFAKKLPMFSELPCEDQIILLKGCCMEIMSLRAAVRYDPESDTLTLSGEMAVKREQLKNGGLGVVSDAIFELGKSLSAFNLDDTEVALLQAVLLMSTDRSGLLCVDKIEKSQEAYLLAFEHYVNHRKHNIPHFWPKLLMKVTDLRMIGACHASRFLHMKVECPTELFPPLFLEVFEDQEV
T4 sequence (P19793 1-462 partner): T3 sequence (P19793 1-462 partner)
The experiment in a line: HEK293T THR alpha/RXR luciferase reporter assay (Assay 2). The experiment is classed as cell-based. Particulars: Assay 2; for Emax: HEK-293T, Table 5, THRα, read-out: Activity category Assay 2 THRα (Emax); for EC50: Table 4, THR-alpha, read-out: Activity category Assay 2 (EC50, THR-alpha agonist activity). The essentials:
as §2
On the technique in general: Reporter assays use an easily measured gene product as a stand-in for the process of interest.

In general, EC50 refers to the midpoint of the concentration-response curve. By Emax is commonly meant the size of the effect at its maximum, as opposed to the concentration needed. Consider `CC(C)c1cc(Oc2c(Cl)cc(-n3nc(N)c(=O)[nH]c3=O)c3c2CC3)n[nH]c1=O` [Compound 79, 6-Amino-2-[4-chloro-5-[(5-isopropyl-6-oxo-1H-pyridazin-3-yl)oxy]-bicyclo[4.2.0]octa-1(6),2,4-trien-2-yl]-4H-1,2,4-triazine-3,5-dione], for which the EC50 in experiment [1] was 1 to 25 µM; in experiment [2], 1 to 25 µM; on THR beta, greater than 10 µM; on THR alpha, 1 to 10 µM. Further, the Emax was 50 to 75% in experiment [1], less than 50% in experiment [2], greater than 75% on THR beta and 50 to 75% on THR alpha.
Take `Nc1nn(-c2cc(Cl)c(Oc3cc(-c4cccc(F)c4)c(=O)[nH]n3)c(Cl)c2)c(=O)[nH]c1=O` [Compound 69, 6-Amino-2-(3,5-dichloro-4-((5-(3-fluorophenyl)-6-oxo-1,6-dihydropyridazin-3-yl)oxy)phenyl)-1,2,4-triazine-3,5(2H,4H)-dione]: the EC50 lay within 0.05 to 0.25 µM in experiment [1], 0.25 to 1 µM in experiment [2], 0.05 to 0.25 µM at THR beta and 0.05 to 0.25 µM at THR alpha. Also, the Emax in experiment [1] is less than 50%; in experiment [2], less than 50%; at THR beta, 50 to 75%; on THR alpha, 50 to 75%.
For `CC(C)/C=C1\C(=O)Nc2ccc(Oc3c(Cl)cc(-n4nc(N)c(=O)[nH]c4=O)cc3Cl)cc21` [Compound 147, 6-amino-2-[3,5-dichloro-4-[(3Z)-3-(2-methylpropylidene)-2-oxo-indolin-5-yl]oxy-phenyl]-1,2,4-triazine-3,5-dione], the EC50 (in experiment [1]; in experiment [2]; at THR beta; at THR alpha) was less than 0.05 µM each time. For the same compound, the Emax is 50 to 75% in experiment [1], less than 50% in experiment [2], greater than 75% on THR beta and greater than 75% at THR alpha.
For `C=C(C)c1cc(Oc2c(Cl)cc(-n3nc(N)c(=O)[nH]c3=O)cc2Cl)n[nH]c1=O` [Compound 60-A, 6-amino-2-(3,5-dichloro-4-[[6-oxo-5-(prop-1-en-2-yl)-1H-pyridazin-3-yl]oxy]phenyl)-4H-1,2,4-triazine-3,5-dione], the EC50 in experiment [1] is less than 0.05 µM; in experiment [2] it was 0.05 to 0.25 µM; at THR beta, 0.25 to 1 µM; at THR alpha, 0.25 to 1 µM. Further, the Emax in experiment [1] is less than 50%; in experiment [2], less than 50%; at THR beta, 50 to 75%; on THR alpha it was less than 50%.
Regarding `O=c1cnn(-c2cc(Cl)c(Oc3cc(-c4ccc5c(c4)CCCC5)c(=O)[nH]n3)c(Cl)c2)c(=O)[nH]1` [Compound 91, 2-(3,5-dichloro-4-((6-oxo-5-(5,6,7,8-tetrahydronaphthalen-2-yl)-1,6-dihydropyridazin-3-yl)oxy)phenyl)-1,2,4-triazine-3,5(2H,4H)-dione], the EC50 in experiment [1] is less than 0.05 µM; in experiment [2] it was 1 to 25 µM; on THR beta it was 0.05 to 0.25 µM; at THR alpha, greater than 10 µM. For the same compound, the Emax in experiment [1] was less than 50%; in experiment [2], 50 to 75%; on THR beta, 50 to 75%; on THR alpha it was less than 50%.
For `CC(C)c1cc(Oc2c(Br)cc(-n3nc(N)c(=O)[nH]c3=O)cc2Br)n[nH]c1=O` [Compound 81, 6-Amino-2-(3,5-dibromo-4-((5-isopropyl-6-oxo-1,6-dihydropyridazin-3-yl)oxy)phenyl)-1,2,4-triazine-3,5(2H,4H)-dione], the EC50 (in experiment [1]; in experiment [2]; at THR beta; on THR alpha) was less than 0.05 µM in each case. For the same compound, the maximal effect (Emax) was 50 to 75% in experiment [1], 50 to 75% in experiment [2], greater than 75% on THR beta and greater than 75% at THR alpha.
For the compound `CCCCCc1n[nH]c2ccc(Cc3c(C)cc(-n4nc(C#N)c(=O)[nH]c4=O)cc3C)cc12` [Compound 32], the concentration for a half-maximal effect (EC50) is less than 0.05 µM in experiment [1], less than 0.05 µM in experiment [2], 0.05 to 0.25 µM on THR beta and 0.05 to 0.25 µM on THR alpha. Also, the Emax was greater than 75% in experiment [1], 50 to 75% in experiment [2], greater than 75% at THR beta and greater than 75% at THR alpha.
As for `Nc1nn(-c2cc(Cl)c(Oc3cc(C4CCCCC4)c(=O)[nH]n3)c(Cl)c2)c(=O)[nH]c1=O` [Compound 58], the EC50 was less than 0.05 µM in experiment [1], 0.25 to 1 µM in experiment [2], 0.05 to 0.25 µM on THR beta and 0.25 to 1 µM on THR alpha. Moreover, the Emax in experiment [1] is less than 50%; in experiment [2], less than 50%; at THR beta, greater than 75%; on THR alpha it was 50 to 75%.
Consider `Nc1nn(-c2cc(Cl)c(Oc3cc(C4CCc5ccccc5C4)c(=O)[nH]n3)c(Cl)c2)c(=O)[nH]c1=O` (stereo not drawn) [Compound 98], for which the concentration giving a half-maximal response (EC50) is 0.05 to 0.25 µM in experiment [1], greater than 25 µM in experiment [2], 0.05 to 0.25 µM at THR beta and greater than 10 µM on THR alpha. Moreover, the Emax (in experiment [1]; in experiment [2]; on THR beta; at THR alpha) was less than 50% throughout.
Take `O=c1cnn(-c2cc(Cl)c(Oc3cc(-c4ccc5ccccc5c4)c(=O)[nH]n3)c(Cl)c2)c(=O)[nH]1` [Compound 92]: the EC50 in experiment [1] is 0.05 to 0.25 µM; in experiment [2] it was 1 to 25 µM; at THR beta, 0.05 to 0.25 µM; on THR alpha, greater than 10 µM. The Emax (in experiment [1]; in experiment [2]; on THR beta; on THR alpha) was less than 50% in each case.
For `Cc1cccc(-c2cc(Oc3c(Cl)cc(-n4nc(N)c(=O)[nH]c4=O)cc3Cl)n[nH]c2=O)c1F` [Compound 64, 6-amino-2-(3,5-dichloro-4-[[5-(2-fluoro-3-methylphenyl)-6-oxo-1H-pyridazin-3-yl]oxy]phenyl)-4H-1,2,4-triazine-3,5-dione], the EC50 in experiment [1] was less than 0.05 µM; in experiment [2] it was 0.25 to 1 µM; on THR beta, 0.05 to 0.25 µM; at THR alpha, 0.25 to 1 µM. The maximal effect (Emax) was less than 50% in experiment [1], less than 50% in experiment [2], 50 to 75% on THR beta and less than 50% at THR alpha.
As for `N#Cc1nn(-c2cc(Cl)c(Oc3ccc4[nH]cc(C5CCCC5)c4c3)c(Cl)c2)c(=O)[nH]c1=O` [Compound 5, 2-[3,5-dichloro-4-[(3-cyclopentyl-1H-indol-5-yl)oxy]phenyl]-3,5-dioxo-4H-1,2,4-tri-azine-6-carbonitrile], the EC50 in experiment [1] is less than 0.05 µM; in experiment [2], greater than 25 µM; on THR beta, 0.25 to 1 µM; at THR alpha, 1 to 10 µM. For the same compound, the Emax was less than 50% in experiment [1], less than 50% in experiment [2], greater than 75% at THR beta and 50 to 75% on THR alpha.
